These results are taken from patent publication US10532977B2, “Small molecule inhibitors of protein tyrosine phosphatases and uses thereof” (Indiana University Research and Technology Corporation, priority 2015, dated 2020).

The assay concerns mPTPB. Description: IFN-γ induced Erk1/2 phosphorylation in mPTPB transfected Raw264.7 cells. Format: cell-based, mouse. The protocol: Raw264.7 mouse macrophages were cultured in Dulbecco's modified Eagle's medium (DMEM) supplemented with 10% FBS (Invitrogen), penicillin (50 units/mL), and streptomycin (50 μg/mL) under a humidified atmosphere containing 5% CO2 at 37° C. Transfected Raw264.7 cells (Vector, WT-mPTPB) were seeded in a 12-well plate at a density of 4×10^4 cells/well. The following day cells were treated with mPTPB inhibitor 11a for 1 hour, then stimulated with IFN-γ (200 U/ml) for 1 hour. Subsequently, the cells were washed with ice-cold phosphate buffered saline, and lysed with lysis buffer on ice for 30 minutes. Cell lysate was then cleared by centrifuging at 13,000 rpm for 15 minutes. The phosphorylation of ERK1/2 was detected by Western blotting.

On to `O=C(C(c1ccccc1)S(=O)(=O)O)N1CCCC2CCCCC21` (centres unmarked) [Compound L319N53], for which, under “8 nM, 16 nM, and 32 nM”, the “Erk1/2 phosphorylation in mPTPB transfected Raw264.7 cells” value is recorded as “increased Erk1/2 phosphorylation”. In addition, for the setting “Raw264.7 vector cells”, the “Erk1/2 phosphorylation in vector cells” value was “no effect”.
